Here are results for one cell line from the supplement of paper PMC10307832.

Holding throughout (experiment): relative viability (nuclei count vs DMSO), 5 days (fraction); higher = more cells survive
Compound in the test “Entinostat + Crizotinib”: Nc1ccccc1NC(=O)c1ccc(CNC(=O)OCc2cccnc2)cc1 [Entinostat] + C[C@@H](Oc1cc(-c2cnn(C3CCNCC3)c2)cnc1N)c1c(Cl)ccc(F)c1Cl [Crizotinib] (partner 1 µM)
In a few lines:
(§1)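 Nuclei were stained with Hoechst during a one-step fixation (final 0.05% Triton X-100, 1% formaldehyde, 1 ug/ml Hoechst) carried out 5 days after dosing, then counted on 4× images. The cells, lung cancer lines in 1536-well plates, had been dosed by pin tool the day after seeding with one drug alone or a fixed anchor-drug dose plus five library-drug doses (not always all listed) in √10 steps. Relative viability is the nuclei count in treated wells divided by that in vehicle wells, and each value is the median of duplicate plates.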

Compound in the test “Entinostat + Luminespib”: Nc1ccccc1NC(=O)c1ccc(CNC(=O)OCc2cccnc2)cc1 [Entinostat] + CCNC(=O)c1noc(-c2cc(C(C)C)c(O)cc2O)c1-c1ccc(CN2CCOCC2)cc1 [Luminespib] (partner 0.01 µM)
In a few lines: as §1

Compound in the test “SGI-1776 + Vorinostat”: CN1CCC(CNc2ccc3ncc(-c4cccc(OC(F)(F)F)c4)n3n2)CC1 [SGI-1776] + O=C(CCCCCCC(=O)Nc1ccccc1)NO [Vorinostat] (partner 1 µM)
The essentials: as §1

Compound in test [1]: C1COCCN1C2=NC(=NC3=C2OC4=C3C=CC=N4)C5=CC(=CC=C5)NC(=O)C6=CN=C(C=C6)N + CS(=O)(=O)CCNCc1ccc(-c2ccc3ncnc(Nc4ccc(OCc5cccc(F)c5)c(Cl)c4)c3c2)o1 [Lapatinib] (partner 2 µM)
The essentials:
as §1

Take UMC-11: the relative viability with Entinostat + Crizotinib (first compound 0.02 µM) was 0.623; in the test with Entinostat + Crizotinib (first compound 0.06325 µM), 0.646; with Entinostat + Crizotinib (first compound 0.2 µM), 0.363; with Entinostat + Crizotinib (first compound 0.6325 µM), 0.109; with Entinostat + Crizotinib (first compound 2 µM), 0.0765; in the test with Entinostat + Luminespib (first compound 0.02 µM) it was 1.06. Also, the relative viability worked out at 1.14 in the test with Entinostat + Luminespib (first compound 0.06325 µM); 0.937 with Entinostat + Luminespib (first compound 0.2 µM); 0.261 with Entinostat + Luminespib (first compound 0.6325 µM); 0.221 with Entinostat + Luminespib (first compound 2 µM); 0.404 with SGI-1776 + Vorinostat (first compound 0.08 µM); 0.378 in the test with SGI-1776 + Vorinostat (first compound 0.8 µM). Also, the relative viability in the test with SGI-1776 + Vorinostat (first compound 2.53 µM) was 0.357; with SGI-1776 + Vorinostat (first compound 8 µM), 0.228; in test [1] (first compound 0.02 µM) it was 0.927; in test [1] (first compound 0.06325 µM) it was 1.09; in test [1] (first compound 0.2 µM), 0.918; in test [1] (first compound 0.6325 µM), 1.06. Moreover, in test [1] (first compound 2 µM), the relative viability was found to be 0.822.
